One series concerns PKC. Particulars: in-vitro tests; Hegemann et al. (1989); cited from earlier work.
The test system of series [1] is TPA-induced ear edema in mice. As to the kind of experiment: Intraperitoneal administration, TPA-induced ear edema in mice. The format is in vivo. Particulars: intraperitoneally, 30 mg/kg, 3 h after challenge. As for the experimental part:
Mice were injected intraperitoneally with 30, 10 or 3.3 mg/kg body weight of the test substances, sphingosine in carboxymethylcellulose (0.5%) and tiflucarbine in physiologic Saline, 10 ml/kg body weight. After 60 minutes the mire were challenged on the left ear with a 0.01 wt% solution of 12-O-tetradecanoylphorbol-13-acetate (TPA) in a 80/20 mixture of acetone/water. At 0, 3, 6 and 24 h after challenge, ear thickness was determined.

A further series addresses calmodulin (Homo sapiens, UniProt P0DP23). Conditions: Schmidt et al. (1990); cited from earlier work.
In series [2] the test system is HaCaT cells. As to the kind of experiment: Keratinocyte morphology, phase contrast microscopy. The format is cell-based, human. Conditions: 10 µM, monitored during 72 hours. As for the experimental part: HaCaT cells were cultured under standard conditions. 24 h after plating (2.5 x 10⁶ cells) the medium was replaced by medium containing the test compounds. During 72 hours cell morphology was frequently monitored using a phase contrast photomicroscope (Olympus IMT-2, Tokyo, Japan).

The next series deals with PMHL. Briefly: Nonspecific cytotoxicity, trypane blue exclusion test. In kind it is cell-based, human. As for the experimental part: Nonspecific cytotoxicity of the test compounds on PMHL was assessed by […] blue exclusion test.
For series [3], the system named is PKC from the central nervous system. As to the kind of experiment: Phosphorylation of synaptosomal plasma membranes: B-50 phosphorylation. In kind it is biochemical. Particulars: for phosphorylation of B-50 (% of control): without addition of CaM. Here is the method: Subcellular fractionation and phosphorylation assay were performed according to Kristjansson et al., (1982). […] After a preincubation at 30°C for 5 min, the phosphorylation reaction was started by adding the ATP. The reaction was stopped after 15 sec. All compounds to be tested were present at the start of the preincubation. […]

The subject of a further series is NHEK. Briefly: Keratinocyte proliferation, neutral red assay (number of viable attached cells). In kind it is cell-based. Conditions: Homo sapiens, Ca²⁺ concentration low (0.06 mM), read-out: keratinocyte proliferation IC₅₀ values. As for the experimental part:
(§1) On day 0, 5,000 cells in 100 µl were plated per well in a 96-well cluster plate (Greiner), either in the medium as stated above, or in MCDB153 medium (Clonetics) under low calcium conditions. On day 1 100 µl medium containing increasing concentrations of test agents were added to each well. On day 4, 50 µl of 0.05% neutral red (Gurr) solution in 0.9% NaCl was added per well and the cells were reincubated for 3 h at 37°C. After washing with PBS, the cells were lyzed by addition of 100 µl of 50% ethanol in 0.05 M NaH₂PO₄ per well. After vigorous shaking, the optical extinction was measured at 550 nm. […] Meth., 9: 7). All determinations were performed in octuple. IC₅₀-values (the concentration inhibiting cell numbers by 50%) were determined (µM).

In another series the test system is SVK₁₄. The description is as above. In kind it is cell-based. Conditions: Homo sapiens. Here is the method:
as §1

For series [4], the system named is HaCaT cells.
Description: HaCaT cells were grown as described.
Cytotoxicity was assessed by measurements of the content of intracellular lactate dehydrogenase (LDH) activity released into the culture medium during 48 h after onset of drug exposure. Possible drug induced detachment of the HaCaT cells from the plate was assessed by collection of the medium from the wells and centrifugation (80 x g, 10 min.) The resulting pellet was suspended in 10 µl medium and cells were counted in a haemocytometer.
Another series relates to 50 kDa protein. As to the kind of experiment: Phosphorylation of synaptosomal plasma membranes: CaM-dependent phosphorylation of the 50 kDa protein. In kind it is biochemical. Conditions: in the presence of exogenous CaM (3 units/assay); read-out: IC₅₀-value, CaM-dependent phosphorylation of the 50 kDa protein. As for the experimental part: Subcellular fractionation and phosphorylation assay were performed according to Kristjansson et al., (1982). […] After a preincubation at 30°C for 5 min, the phosphorylation reaction was started by adding the ATP. The reaction was stopped after 15 sec. All compounds to be tested were present at the start of the preincubation. […] Phosphorylation of B-50 and the 50 kDa protein, which was only phosphorylated after addition of CaM, was measured in the presence of exogenous CaM (3 units/assay) and quantified.

Series [5] relates to TPA-induced edema and hyperproliferation in mouse skin. Briefly: Topical application, TPA-induced edema and hyperproliferation in mouse skin. The format is in vivo, Hairless mice (hr/hr; male). Conditions: with 0.01 wt% TPA. As for the experimental part: Hairless mice (hr/hr; male) were treated on their backs with 10 µl of a 0.01 wt% solution of 12-O-tetradecanoylphorbol-13-acetate (TPA) in a 80/20 mixture of acetone/water, further containing the test substances cyclosporin A, sphingosine or tiflucarbine. Per mouse, 4 application sites were used: one application site was treated with only TPA (control) and one with only vehicle (blanco), two with experimental formulations, according to a roulation scheme. 6 mice were treated per experiment. Skin fold thickness was determined before treatment (t=0) and 6 and 24 h after treatment, as a measure of edema. After 72 h the epidermis (15 mm punch biopsy) was separated with 2 M KBr and dissolved in 0.1 M NaOH for determination of the amount of protein, as a measure of hyperproliferation. In one experiment tiflucarbine was compared with cyclosporin A, in a second experiment with sphingosine.

For the next series, the system named is rat brain synaptosomes. As to the kind of experiment: Noradrenaline release from permeated synaptosomes. In kind it is cell-based. Particulars: 100 µM to 1 µM; low (10 nM) and high (10 µM) Ca²⁺. Here is the method: Highly purified synaptosomes were prepared according to Dunkley and Robinson (1987). The synaptosomes were diluted with 3 ml buffer A (123 mM NaCl, 5 mM KCl, 2 mM CaCl₂, […], 1.15 mM NaH₂PO₄, 5.6 mM glucose, 20 mM PIPES pH 6.8, gassed with O₂:CO₂, 95:5) and incubated for 15 min at 37°C. Then 2.5 µCi noradrenalin (NA) was added, incubation was continued for 15 min and the synaptosomes were centrifuged for 20 min at 600 x g. The resulting pellet was washed twice in buffer A without CaCl₂ and resuspended (1 mg protein/ml).
For measurement of NA release, prelabeled synaptosomes were incubated at 37°C in buffer A containing Na₂ATP and EGTA-buffered Ca²⁺ in concentrations as indicated (final volume 120 µl). The release reaction was started by adding synaptosomes (20 µg protein) to the reaction mixture and terminated after 5 min by 30 sec centrifugation at 10,000 x g. The supernatant (90 µl) was collected and counted in a Packard Model 2,000 CA liquid scintillation counter with Picofluor as a scintillation cocktail. NA release was expressed as % of total [³H]-NA incorporated. Total NA incorporation was determined by measuring [³H]-incorporation in 20 µg prelabeled washed synaptosomes.

Where two headings read alike, the source gives them in different places.

As for `CCN1CCc2[nH]c3cc(F)c4scc(C)c4c3c2C1` [Tiflucarbine, 1-methyl-9-ethyl-4-fluoro-7,8,9,10-tetra:hydro-thieno-[3,2-e]-pyrido-[4,3-b]-indole lactate], in the series with PKC, the PKC activity entry is “significantly inhibit PKC activity”. In addition, the “ear edema (ear thickness)” value in series [1] is given as “reduced ear edema”. Besides, the binding to calmodulin result at calmodulin is “bind to calmodulin”. Further, in the series on HaCaT cells [2], the effect on morphology entry is on record as “no effect”. The same compound displayed a Trypane blue in the series with PMHL of 300 µM. The B-50 phosphorylation entry in series [3] (in the presence of exogenous CaM (3 units/assay)) was “did not inhibit B-50 phosphorylation”. Further, the “phosphorylation of B-50 (% of control)” value in [3] (concentration 1 µM) is reported as 82 ± 14 % of control; in [3] (concentration 10 µM), 110 ± 15 % of control; in series [3] (concentration 100 µM) it was 92 ± 9 % of control; in series [3] (concentration l mM) it was 95 ± 11 % of control. Besides, the IC50 was 10 µM in the series on NHEK; 12.5 µM with SVK₁₄ (SVK₁₄, Ca²⁺ concentration normal (1.6 mM), read-out: keratinocyte proliferation IC₅₀ values); 7.5 µM in the series on SVK₁₄ (read-out: keratinocyte proliferation IC₅₀ values, SVK₁₄, Ca²⁺ concentration low (0.06 mM)); below 1 µM in the series on 50 kDa protein. For the same compound, in the series on HaCaT cells [4], the toxic concentration entry is listed as “above 300 µM”. The “edema (skin fold thickness)” value in [5] (6 and 24 h after treatment) was “reduces edema at 0.5, 1 and 2.5%”. The “hyperproliferation (amount of epidermal protein)” value in [5] (after 72 h) was “reduces hyperproliferation only at 1 and 2.5%”. Further, the noradrenaline release result with rat brain synaptosomes is listed as “did not display any significant effects”.

The values above are taken from patent EP0499337A1, “Use of tetra:hydro-thieno-pyrido-indole derivatives for the treatment of skin disorders” (YAMANOUCHI EUROPE B.V., priority 1991, dated 1992).
